In brackets after ≈: the same amount, converted by molar mass. Activity calls are given as the source filed them. The rule behind the calls is not given here.
Tests used:
[1] = Clearance in Sprague-Dawley rat at 2 mg/kg, iv measured after 48 hrs by UPLC analysis; assay type: ADME, organism-based; conditions: in vivo
[2] = Cmax in Sprague-Dawley rat at 2 mg/kg, iv measured after 48 hrs by UPLC analysis; assay type: ADME, organism-based; conditions: in vivo
[3] = Apparent volume of distribution in Sprague-Dawley rat at 2 mg/kg, iv measured after 48 hrs by UPLC analysis; assay type: ADME, organism-based; conditions: in vivo, read-out: Vz
[4] = Oral bioavailability in Sprague-Dawley rat at 20 mg/kg by UPLC analysis; assay type: ADME, organism-based; conditions: in vivo
[5] = AUC (0 to t) in Sprague-Dawley rat at 20 mg/kg, po by UPLC analysis; assay type: ADME, organism-based; conditions: in vivo
[6] = molecular target: T1, Protein cereblon/Tyrosine-protein kinase BTK (Homo sapiens, UniProt Q06187+Q96SW2); experiment: PROTAC activity at CRBN/BTK in human Ramos cells assessed as induction of BTK degradation at 100 nM measured within 4 hrs by Western blot analysis; assay type: cell-based
Target sequence in this assay (Q06187 2-659 limits assumed): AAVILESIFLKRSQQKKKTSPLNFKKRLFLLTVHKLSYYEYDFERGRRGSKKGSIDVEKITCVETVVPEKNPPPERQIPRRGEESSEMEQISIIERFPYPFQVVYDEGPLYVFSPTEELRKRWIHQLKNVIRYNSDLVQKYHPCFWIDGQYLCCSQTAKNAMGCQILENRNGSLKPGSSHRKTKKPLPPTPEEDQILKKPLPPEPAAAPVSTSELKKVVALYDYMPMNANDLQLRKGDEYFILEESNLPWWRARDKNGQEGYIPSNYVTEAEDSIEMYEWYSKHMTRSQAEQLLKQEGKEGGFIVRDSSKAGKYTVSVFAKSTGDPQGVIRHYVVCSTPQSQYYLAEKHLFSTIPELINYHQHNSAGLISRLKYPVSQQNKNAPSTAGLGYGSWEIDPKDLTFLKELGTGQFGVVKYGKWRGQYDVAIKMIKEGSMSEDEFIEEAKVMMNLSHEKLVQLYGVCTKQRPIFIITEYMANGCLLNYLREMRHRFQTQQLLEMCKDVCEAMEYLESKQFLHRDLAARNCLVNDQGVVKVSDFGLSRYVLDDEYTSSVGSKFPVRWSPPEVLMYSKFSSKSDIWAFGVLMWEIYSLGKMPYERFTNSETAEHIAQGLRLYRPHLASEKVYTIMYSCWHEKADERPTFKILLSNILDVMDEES
Target sequence in this assay (Q96SW2 whole entry partner): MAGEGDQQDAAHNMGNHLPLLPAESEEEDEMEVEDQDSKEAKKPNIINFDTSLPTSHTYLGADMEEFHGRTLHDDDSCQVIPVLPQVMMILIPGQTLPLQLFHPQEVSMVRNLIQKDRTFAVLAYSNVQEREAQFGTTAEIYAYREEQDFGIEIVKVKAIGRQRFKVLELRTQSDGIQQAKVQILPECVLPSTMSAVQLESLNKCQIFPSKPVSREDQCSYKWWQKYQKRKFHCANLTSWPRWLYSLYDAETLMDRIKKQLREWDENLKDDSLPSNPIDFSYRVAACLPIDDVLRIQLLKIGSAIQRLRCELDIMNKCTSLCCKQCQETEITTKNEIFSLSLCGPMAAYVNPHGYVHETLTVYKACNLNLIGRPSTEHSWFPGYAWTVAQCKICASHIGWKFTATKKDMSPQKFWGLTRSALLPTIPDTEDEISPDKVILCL

[7] = molecular target: T1, Protein cereblon/Tyrosine-protein kinase BTK; experiment: PROTAC activity at CRBN/BTK in human Ramos cells assessed as induction of BTK degradation at 100 nM pretreated with compound for 24 hrs followed by compound washout and measured upto 48 hrs by Western blot analysis; assay type: cell-based
Target sequence in this assay (Q06187 2-659 limits assumed): as the sequence (Q06187 2-659 limits assumed) above
Target sequence in this assay (Q96SW2 whole entry partner): as the sequence (Q96SW2 whole entry partner) above

RAW264.7 [8] = experiment: Anti-inflammatory activity in LPS-stimulated mouse RAW264.7 cells assessed as reduction in IL-1beta mRNA level preincubated with compound for 2 hrs followed by LPS stimulation and measured after 3 hrs […]; assay type: functional, cell-based; conditions: dose 0.1-10 µM, time 5.0 hrs
[9] = molecular target: Protein cereblon/Tyrosine-protein kinase BTK (Mus musculus) (UniProt P35991+Q8C7D2); experiment: PROTAC activity at CRBN/BTK in mouse RAW264.7 cells assessed as induction of BTK degradation by Western blot analysis; assay type: cell-based; conditions: dose 0.1-10 µM
[10] = MRT (0 to infinity) in Sprague-Dawley rat at 20 mg/kg, po by UPLC analysis; assay type: ADME, organism-based; conditions: in vivo
[11] = molecular target: T1, Protein cereblon/Tyrosine-protein kinase BTK; experiment: PROTAC activity at CRBN/BTK in human Ramos cells assessed as induction of BTK degradation at 100 nM pretreated with ibrutinib for 2 hrs followed by compound treatment and measured after 8 hrs by Western blot analysis; assay type: cell-based
Target sequence in this assay (Q06187 2-659 limits assumed): as the sequence (Q06187 2-659 limits assumed) above
Target sequence in this assay (Q96SW2 whole entry partner): as the sequence (Q96SW2 whole entry partner) above

[12] = molecular target: T1, Protein cereblon/Tyrosine-protein kinase BTK; experiment: PROTAC activity at CRBN/BTK in human Ramos cells assessed as induction of BTK degradation incubated for 24 hrs by Western blot analysis; assay type: cell-based
Target sequence in this assay (Q06187 whole entry): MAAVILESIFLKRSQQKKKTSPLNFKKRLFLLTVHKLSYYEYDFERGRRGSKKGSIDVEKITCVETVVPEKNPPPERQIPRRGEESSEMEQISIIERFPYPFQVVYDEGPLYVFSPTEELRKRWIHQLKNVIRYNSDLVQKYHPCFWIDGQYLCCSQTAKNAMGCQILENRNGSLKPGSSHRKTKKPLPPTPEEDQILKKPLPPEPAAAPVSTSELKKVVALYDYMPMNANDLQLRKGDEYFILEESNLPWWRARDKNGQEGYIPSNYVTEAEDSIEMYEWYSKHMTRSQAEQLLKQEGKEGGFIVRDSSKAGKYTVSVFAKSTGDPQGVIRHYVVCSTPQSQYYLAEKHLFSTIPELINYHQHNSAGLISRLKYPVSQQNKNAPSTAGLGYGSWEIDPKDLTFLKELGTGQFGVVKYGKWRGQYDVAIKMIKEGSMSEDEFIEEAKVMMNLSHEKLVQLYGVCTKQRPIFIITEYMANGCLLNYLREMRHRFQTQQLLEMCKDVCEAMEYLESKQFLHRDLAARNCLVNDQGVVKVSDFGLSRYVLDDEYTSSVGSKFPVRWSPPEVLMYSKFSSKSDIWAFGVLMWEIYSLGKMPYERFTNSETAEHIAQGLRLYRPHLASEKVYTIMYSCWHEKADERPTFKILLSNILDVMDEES
Target sequence in this assay (Q96SW2 whole entry): as the sequence (Q96SW2 whole entry partner) above

[13] = molecular target: T1, Protein cereblon/Tyrosine-protein kinase BTK; experiment: PROTAC activity at CRBN/BTK in human Ramos cells assessed as induction of BTK degradation by measuring maximal efficacy incubated for 24 hrs by Western blot analysis relative to control; assay type: cell-based
Target sequence in this assay (Q06187 2-659 limits assumed): as the sequence (Q06187 2-659 limits assumed) above
Target sequence in this assay (Q96SW2 whole entry partner): as the sequence (Q96SW2 whole entry partner) above

RAW264.7 [14] = experiment: Anti-inflammatory activity in LPS-stimulated mouse RAW264.7 cells assessed as reduction in IL-1beta secretion at 0.1 to 10 uM preincubated with compound for 2 hrs followed by LPS stimulation and measured after 3 hrs by ELISA analysis; assay type: functional, cell-based; conditions: dose 0.1-10 µM, time 5.0 hrs
[15] = molecular target: T1, Protein cereblon/Tyrosine-protein kinase BTK; experiment: PROTAC activity at CRBN/BTK in human MINO cells assessed as induction of BTK degradation by measuring maximal efficacy incubated for 24 hrs by Western blot analysis relative to control; assay type: cell-based
Target sequence in this assay (Q06187 2-659 limits assumed): as the sequence (Q06187 2-659 limits assumed) above
Target sequence in this assay (Q96SW2 whole entry partner): as the sequence (Q96SW2 whole entry partner) above

Mus musculus [16] = experiment: (§1) Anti-inflammatory activity in zymosan-induced peritonitis C57BL/6J mouse model assessed as decrease in IL-6 level in peritoneal cavity preadministered intraperitoneally with compound for 1 hrs followed by zymosan administration and measured after 16 hrs by ELISA; assay type: functional, organism-based; conditions: dose 10-50 mg/kg, route ip, time 17.0 hrs
RAW264.7 [17] = experiment: Anti-inflammatory activity in LPS-stimulated mouse RAW264.7 cells assessed as reduction in IL-6 mRNA level preincubated with compound for 2 hrs followed by LPS stimulation and measured after 3 hrs […]; assay type: functional, cell-based; conditions: dose 0.1-10 µM, time 5.0 hrs
Mus musculus [18] = experiment: as §1, with “reduction” for “decrease”, “myeloid cells” for “IL-6 level”, “trypan blue staining based optical microscopic analysis” for “ELISA”; assay type: functional, organism-based; conditions: dose 10-50 mg/kg, route ip, time 17.0 hrs
[19] = molecular target: T1, Protein cereblon/Tyrosine-protein kinase BTK; experiment: PROTAC activity at CRBN/BTK in human Ramos cells assessed as induction of BTK degradation at 100 nM pretreated with bafilomycin for 2 hrs followed by compound treatment and measured after 8 hrs by Western blot analysis; assay type: cell-based
Target sequence in this assay (Q06187 2-659 limits assumed): as the sequence (Q06187 2-659 limits assumed) above
Target sequence in this assay (Q96SW2 whole entry partner): as the sequence (Q96SW2 whole entry partner) above

[20] = Half-life in Sprague-Dawley rat at 2 mg/kg, iv measured after 48 hrs by UPLC analysis; assay type: ADME, organism-based; conditions: in vivo
[21] = Cmax in Sprague-Dawley rat at 20 mg/kg, po by UPLC analysis; assay type: ADME, organism-based; conditions: in vivo
[22] = Aqueous solubility of compound incubated for 24 hrs by HPLC based shake flask method; assay type: physicochemical; conditions: buffer
RAW264.7 [23] = experiment: Inhibition of NF-kappaB activation in LPS-stimulated mouse RAW264.7 cells assessed as reduction in phosphorylated p65 level at 0.1 to 10 uM preincubated with compound for 1 hrs followed by LPS stimulation and measured after 24 hrs by Western blot analysis; assay type: cell-based; conditions: dose 0.1-10 µM, time 25.0 hrs
[24] = Half-life in Sprague-Dawley rat at 20 mg/kg, po by UPLC analysis; assay type: ADME, organism-based; conditions: in vivo
[25] = MRT (0 to infinity) in Sprague-Dawley rat at 2 mg/kg, iv measured after 48 hrs by UPLC analysis; assay type: ADME, organism-based; conditions: in vivo
[26] = molecular target: T1, Protein cereblon/Tyrosine-protein kinase BTK; experiment: PROTAC activity at CRBN/BTK in human Ramos cells assessed as induction of BTK degradation at 100 nM measured after 8 hrs by Western blot analysis relative to control; assay type: cell-based
[27] = molecular target: T1, Protein cereblon/Tyrosine-protein kinase BTK; experiment: PROTAC activity at CRBN/BTK in human Ramos cells assessed as hook effect at 10000 nM incubated for 24 hrs by Western blot analysis; assay type: cell-based
RAW264.7 [28] = experiment: Inhibition of NF-kappaB activation in LPS-stimulated mouse RAW264.7 cells assessed as reduction in phosphorylated BTK level at 0.1 to 10 uM preincubated with compound for 1 hrs followed by LPS stimulation and measured after 24 hrs by Western blot analysis; assay type: cell-based; conditions: dose 0.1-10 µM, time 25.0 hrs
[29] = MRT (0 to t) in Sprague-Dawley rat at 2 mg/kg, iv measured after 48 hrs by UPLC analysis; assay type: ADME, organism-based; conditions: in vivo
[30] = molecular target: T1, Protein cereblon/Tyrosine-protein kinase BTK; experiment: PROTAC activity at CRBN/BTK in human Ramos cells assessed as induction of BTK degradation at 100 nM pretreated with pomalidomide for 2 hrs followed by compound treatment and measured after 8 hrs by Western blot analysis; assay type: cell-based
RAW264.7 [31] = experiment: Cytotoxicity against mouse RAW264.7 cells assessed as reduction in cell viability upto 10 uM incubated for 24 hrs by CCK8 assay; assay type: toxicity, cell-based; conditions: raw264.7, 24 h
Mus musculus [32] = experiment: Anti-inflammatory activity in zymosan-induced peritonitis C57BL/6J mouse model assessed as decrease in IL-1beta level in peritoneal cavity preadministered intraperitoneally with compound for 1 hrs followed by zymosan administration and measured after 16 hrs by ELISA; assay type: functional, organism-based; conditions: dose 10-50 mg/kg, route ip, time 17.0 hrs
[33] = molecular target: T1, Protein cereblon/Tyrosine-protein kinase BTK; experiment: PROTAC activity at CRBN/BTK in human Ramos cells assessed as induction of BTK degradation at 100 nM pretreated with MG132 for 2 hrs followed by compound treatment and measured after 8 hrs by Western blot analysis; assay type: cell-based
[34] = AUC (0 to infinity) in Sprague-Dawley rat at 20 mg/kg, po by UPLC analysis; assay type: ADME, organism-based; conditions: in vivo
[35] = molecular target: T1, Protein cereblon/Tyrosine-protein kinase BTK; experiment: PROTAC activity at CRBN/BTK in human MINO cells assessed as induction of BTK degradation incubated for 24 hrs by Western blot analysis; assay type: cell-based
Target sequence in this assay (Q06187 whole entry): as the sequence (Q06187 whole entry) above
Target sequence in this assay (Q96SW2 whole entry): as the sequence (Q96SW2 whole entry partner) above

[36] = molecular target: T1, Protein cereblon/Tyrosine-protein kinase BTK; experiment: PROTAC activity at CRBN/BTK in human Ramos cells assessed as induction of BTK degradation at 100 nM incubated for 24 hrs by Western blot analysis relative to control; assay type: cell-based
[37] = AUC (0 to infinity) in Sprague-Dawley rat at 2 mg/kg, iv measured after 48 hrs by UPLC analysis; assay type: ADME, organism-based; conditions: in vivo
[38] = MRT (0 to t) in Sprague-Dawley rat at 20 mg/kg, po by UPLC analysis; assay type: ADME, organism-based; conditions: in vivo
RAW264.7 [39] = experiment: Inhibition of NF-kappaB activation in LPS-stimulated mouse RAW264.7 cells assessed as inhibition of IkappaB-alpha phosphorylation at 0.1 to 10 uM preincubated with compound for 1 hrs followed by LPS stimulation and measured after 24 hrs by Western blot analysis; assay type: cell-based; conditions: dose 0.1-10 µM, time 25.0 hrs
RAW264.7 [40] = experiment: Anti-inflammatory activity in LPS-stimulated mouse RAW264.7 cells assessed as reduction in IL-6 secretion at 0.1 to 10 uM preincubated with compound for 2 hrs followed by LPS stimulation and measured after 3 hrs by ELISA analysis; assay type: functional, cell-based; conditions: dose 0.1-10 µM, time 5.0 hrs
RAW264.7 [41] = experiment: Inhibition of NF-kappaB activation in LPS-stimulated mouse RAW264.7 cells assessed as prevention of IkappaB-alpha degradation at 0.1 to 10 uM preincubated with compound for 1 hrs followed by LPS stimulation and measured after 24 hrs by Western blot analysis; assay type: cell-based; conditions: dose 0.1-10 µM, time 25.0 hrs
[42] = AUC (0 to t) in Sprague-Dawley rat at 2 mg/kg, iv measured after 48 hrs by UPLC analysis; assay type: ADME, organism-based; conditions: in vivo
[43] = molecular target: T1, Protein cereblon/Tyrosine-protein kinase BTK; experiment: PROTAC activity at CRBN/BTK in human MINO cells assessed as hook effect upto 10000 nM incubated for 24 hrs by Western blot analysis; assay type: cell-based

Chain of Protein cereblon/Tyrosine-protein kinase BTK (Mus musculus) (P35991 whole entry, looked up): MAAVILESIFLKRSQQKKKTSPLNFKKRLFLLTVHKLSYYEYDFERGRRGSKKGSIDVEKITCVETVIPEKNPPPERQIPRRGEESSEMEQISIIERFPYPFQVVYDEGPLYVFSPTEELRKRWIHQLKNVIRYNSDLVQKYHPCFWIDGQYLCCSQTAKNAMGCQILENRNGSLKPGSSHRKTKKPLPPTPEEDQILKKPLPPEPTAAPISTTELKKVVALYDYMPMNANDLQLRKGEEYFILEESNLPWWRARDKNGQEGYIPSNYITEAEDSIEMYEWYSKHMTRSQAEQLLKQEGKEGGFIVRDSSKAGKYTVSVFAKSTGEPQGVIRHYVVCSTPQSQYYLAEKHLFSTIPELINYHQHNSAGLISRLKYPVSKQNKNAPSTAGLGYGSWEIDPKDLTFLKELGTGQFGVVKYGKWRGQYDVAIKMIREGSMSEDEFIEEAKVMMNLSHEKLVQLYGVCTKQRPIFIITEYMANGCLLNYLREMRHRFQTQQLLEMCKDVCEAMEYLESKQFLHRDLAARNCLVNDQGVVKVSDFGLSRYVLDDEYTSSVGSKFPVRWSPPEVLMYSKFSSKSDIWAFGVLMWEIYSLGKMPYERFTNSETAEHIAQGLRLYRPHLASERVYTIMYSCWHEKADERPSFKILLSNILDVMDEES
Chain of Protein cereblon/Tyrosine-protein kinase BTK (Mus musculus) (Q8C7D2 whole entry, looked up): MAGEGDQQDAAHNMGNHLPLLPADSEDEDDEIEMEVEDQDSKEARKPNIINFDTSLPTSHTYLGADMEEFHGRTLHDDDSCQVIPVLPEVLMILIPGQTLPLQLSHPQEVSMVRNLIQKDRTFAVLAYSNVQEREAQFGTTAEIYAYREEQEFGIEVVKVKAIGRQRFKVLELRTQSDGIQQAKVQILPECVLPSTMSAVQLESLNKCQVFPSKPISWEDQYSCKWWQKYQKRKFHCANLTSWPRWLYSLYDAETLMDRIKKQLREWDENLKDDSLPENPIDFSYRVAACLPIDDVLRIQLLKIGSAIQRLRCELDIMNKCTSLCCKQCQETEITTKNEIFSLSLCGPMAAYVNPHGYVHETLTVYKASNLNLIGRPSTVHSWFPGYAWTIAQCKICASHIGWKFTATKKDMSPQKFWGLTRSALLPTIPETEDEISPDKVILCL

## Nc1ncnc2c1c(-c1ccc(Oc3ccccc3)cc1)nn2C1CCN(C(=O)CN2CCN(CC3CN(c4ccc5c(c4)C(=O)N(C4CCC(=O)NC4=O)C5=O)C3)CC2)CC1 (stereo not drawn)
[1]
  clearance: 37.5 mL/min/kg
[2]
  Cmax: 1890 ng/mL
[3]
  Vd: 5.85 L/kg
[4]
  bioavailability: 0.25%
[5]
  AUC(0-t): 27.1 ng·h/mL
[6]
  Activity: Active
[7]
  Activity: Active
RAW264.7 [8]
  Activity: Dose-Dependent Effect
[9]
  Activity: Dose-Dependent Effect
[10]
  MRT inf: 5.23 h
[11]
  Activity: inactive
[12]
  EC50: 3.18 nM
[13]
  Emax: 99.9%
RAW264.7 [14]
  Activity: Active
[15]
  Emax: 100%
Mus musculus [16]
  Activity: Dose-Dependent Effect
RAW264.7 [17]
  Activity: Dose-Dependent Effect
Mus musculus [18]
  Activity: Dose-Dependent Effect
[19]
  Activity: Active
[20]
  half-life: 1.82 h
[21]
  Cmax: 9.7 ng/mL
[22]
  solubility thermodynamic at 24 h: 8.16 µg/mL (≈ 9.74 µM)
RAW264.7 [23]
  inhibition: Active
[24]
  half-life: 2.12 h
[25]
  MRT inf: 1.37 h
[26]
  Activity: 100%
[27]
  Activity: Active
RAW264.7 [28]
  inhibition: Active
[29]
  MRT last at 48 h: 1.27 h
[30]
  Activity: inactive
RAW264.7 [31]
  Activity: Non-Toxic
Mus musculus [32]
  Activity: Dose-Dependent Effect
[33]
  Activity: inactive
[34]
  AUC(0-inf): 29 ng·h/mL
[35]
  EC50: 7.07 nM
[36]
  Activity: 99.4%
[37]
  AUC(0-inf): 934 ng·h/mL
[38]
  MRT last: 4.95 h
RAW264.7 [39]
  inhibition: Active
RAW264.7 [40]
  Activity: Active
RAW264.7 [41]
  inhibition: Active
[42]
  AUC(0-t) at 48 h: 926 ng·h/mL
[43]
  Activity: inactive

From ChEMBL document CHEMBL5625192, “Discovery of Ibrutinib-based BTK PROTACs with in vivo anti-inflammatory efficacy by inhibiting NF-κB activation” (Eur J Med Chem, 2023)
